In brackets after ≈: the same amount, converted by molar mass. Marks after values point to notes of the source that are not given here.

The first test deals with Candida albicans (ATCC no. 10231). Nature of the test: MIC determination by broth microdilution (NCCLS), visual scoring. The format is cell-based. The conditions noted are these: Candida albicans, ATCC10231, read-out: MIC80 C. albicans. The method, then:
The antifungal activity of the 2,4,6-pyrimidinetrione analogs shown in Schemes 2-6 were evaluated in vitro using Candida albicans (ATCC no. 10231) and Candida glabrata (ATCC no 48435). All assays were done in accordance with NCCLS reference documents^29.
Master stock concentrations of all tested compounds were prepared to ensure that the maximum final concentration of DMSO was 1% or less. Subsequent 2-fold serial dilutions were made using sterile water to a final concentration of 1280-5.00 μg/ml. A final 10-fold dilution of each drug was made by aliquotting 0.1 mL of each drug dilution into 0.9 mL of fungal suspension in RPMI 1640 media with 10 mM HEPES buffer added (see methodology below), giving final concentrations tested in the range of 128-0.5 μg/ml.
Antifungal susceptibility studies and minimal inhibitory concentrations (MIC) values for Candida albicans (ATCC no. 10231) and Candida glabrata (ATCC no. 48435) were determined by the broth microdilution technique in accordance with NCCLS reference documents. Microdilution panels ranged from 0.5 to 128 μg/mL. All organisms were subcultured on Sabouraud agar and passaged to ensure purity and viability. The initiating inocula were prepared by picking 5-7 isolated colonies ˜1 mm in diameter from freshly prepared YM agar plates. Colonies were resuspended in sterile water, vortexed and the cell density was adjusted spectrophotometrically to the transmittance of a 0.5 McFarland standard at a wavelength of 530 nm, to yield a stock suspension of 1×10^6-5×10^6 cells/mL. The stock was allowed to hydrate for 30 minutes at room temperature. A working suspension was then made by diluting the stock 1:50 with RPMI 1640 media containing HEPES buffer. The working suspension was used for all assays. The plates were incubated at 35° C. for 48-72 hours in a humid atmosphere. Growth was scored visually. MIC values are defined as the lowest concentration of agent that prevents any discernible growth, ˜80% reduction of growth, as compared with drug-free control wells. All assays were run in parallel using either fluconazole or amphotericin B at the NCCLS recommended concentrations^29 as a drug control (Sigma-Aldrich).
(In general: In broth dilution the organism is exposed to a series of concentrations in liquid medium.)
One may read the MIC80 as an inhibitory concentration at the 80% level, which refers to growth in some studies and to a panel of isolates in others. As to `N/N=C/C1C(=O)NC(=O)NC1=O` [BA116, 5-[(E)-hydrazinylidenemethyl]pyrimidine-2,4,6-trione], the MIC80 turned out to be 125 µg/mL (≈ 735 µM).
Same read-out and setting: the same measure for `CN1C(=O)C(/C=N/N)C(=O)N(C)C1=O` [BA117, 5-[(E)-hydrazinylidenemethyl]-1,3-dimethylpyrimidine-2,4,6-trione]: 125 µg/mL (≈ 631 µM); for `C/C(=N\N)C1C(=O)NC(=O)NC1=O` [BA118, 5-[(1E)-1-hydrazinylideneethyl]pyrimidine-2,4,6-trione]: over 125 µg/mL.
Turning to `C/C(=N\N)C1C(=O)N(C)C(=O)N(C)C1=O` [BA119, 5-[(1E)-1-hydrazinylideneethyl]-1,3-dimethylpyrimidine-2,4,6-trione], the MIC80 is over 125 µg/mL.
Turning to `CN/N=C/C1C(=O)NC(=O)NC1=O` [BA120, 5-[(E)-(2-methylhydrazinylidene)methyl]pyrimidine-2,4,6-trione], the MIC80 is over 125 µg/mL.
With `CN/N=C(\C)C1C(=O)NC(=O)NC1=O` [BA121, 5-[(1E)-1-(2-methylhydrazinylidene)ethyl]pyrimidine-2,4,6-trione], the MIC80 was over 125 µg/mL.
For the compound `CN/N=C/C1C(=O)N(C)C(=O)N(C)C1=O` [BA122, 1,3-dimethyl-5-[(E)-(2-methylhydrazinylidene)methyl]pyrimidine-2,4,6-trione], the MIC80 is 62 µg/mL (≈ 292 µM).
For the compound `CN/N=C(\C)C1C(=O)N(C)C(=O)N(C)C1=O` [BA123, 1,3-dimethyl-5-[(1E)-1-(2-methylhydrazinylidene)ethyl]pyrimidine-2,4,6(1H,3H,5H)-trione], the MIC80 is over 125 µg/mL.

Staying with this test, now noted: Table 2, 5-Arylidene-2,4,6-pyrimidinetriones.
As for `O=C1NC(=O)C(=CC=Cc2ccccc2)C(=O)N1` [BA42], the “MIC80 C. albicans” value amounted to 62 µg/mL (≈ 256 µM).

The same test, now with this note: Table 5, Schiff Bases of 5-acylpyrimidinetriones.
In the case of `COc1ccc(N=CC2C(=O)NC(=O)NC2=O)cc1` [BA97], the “MIC80 C. albicans” value is on record as “— (none of the 5-acyl-2,4,6-pyrimidinetriones, 5-alkylated pyrimidinetriones or the 5,5-dialkylated pyrimidinetriones showed antifungal activity through 125 μg/mL)”.
Turning to `COc1ccc(N=CC2C(=O)N(C)C(=O)N(C)C2=O)cc1` [BA98], the “MIC80 C. albicans” value is reported as “— (none of the 5-acyl-2,4,6-pyrimidinetriones, 5-alkylated pyrimidinetriones or the 5,5-dialkylated pyrimidinetriones showed antifungal activity through 125 μg/mL)”.
`COc1ccc(N=C(C)C2C(=O)N(C)C(=O)N(C)C2=O)cc1` [BA99]: the “MIC80 C. albicans” value was “— (none of the 5-acyl-2,4,6-pyrimidinetriones, 5-alkylated pyrimidinetriones or the 5,5-dialkylated pyrimidinetriones showed antifungal activity through 125 μg/mL)”.
The same measure, in the same setting: the same measure for `COc1ccc(N=C(C)C2C(=O)NC(=O)NC2=O)cc1` [BA100]: “— (none of the 5-acyl-2,4,6-pyrimidinetriones, 5-alkylated pyrimidinetriones or the 5,5-dialkylated pyrimidinetriones showed antifungal activity through 125 μg/mL)”; for `O=C1NC(=O)C(C=Nc2ccc([N+](=O)[O-])cc2)C(=O)N1` [BA101]: “— (none of the 5-acyl-2,4,6-pyrimidinetriones, 5-alkylated pyrimidinetriones or the 5,5-dialkylated pyrimidinetriones showed antifungal activity through 125 μg/mL)”.
On the same count and under the same terms, the same measure for `CN1C(=O)C(C=Nc2ccc([N+](=O)[O-])cc2)C(=O)N(C)C1=O` [BA102]: “— (none of the 5-acyl-2,4,6-pyrimidinetriones, 5-alkylated pyrimidinetriones or the 5,5-dialkylated pyrimidinetriones showed antifungal activity through 125 μg/mL)”; for `O=C1NC(=O)C(C=Nc2ccccn2)C(=O)N1` [BA103]: “— (none of the 5-acyl-2,4,6-pyrimidinetriones, 5-alkylated pyrimidinetriones or the 5,5-dialkylated pyrimidinetriones showed antifungal activity through 125 μg/mL)”; for `CN1C(=O)C(C=Nc2ccccn2)C(=O)N(C)C1=O` [BA104]: “— (none of the 5-acyl-2,4,6-pyrimidinetriones, 5-alkylated pyrimidinetriones or the 5,5-dialkylated pyrimidinetriones showed antifungal activity through 125 μg/mL)”.
Still for that read-out and setting: the same measure for `O=C1NC(=O)C(/C=N/c2ccc(-c3ccccc3)cc2)C(=O)N1` [BA105]: “— (none of the 5-acyl-2,4,6-pyrimidinetriones, 5-alkylated pyrimidinetriones or the 5,5-dialkylated pyrimidinetriones showed antifungal activity through 125 μg/mL)”; for `CN1C(=O)C(C=Nc2ccc(-c3ccccc3)cc2)C(=O)N(C)C1=O` [BA106]: “— (none of the 5-acyl-2,4,6-pyrimidinetriones, 5-alkylated pyrimidinetriones or the 5,5-dialkylated pyrimidinetriones showed antifungal activity through 125 μg/mL)”; for `O=C1NC(=O)C(/C=N/c2nnc[nH]2)C(=O)N1` [BA107]: “— (none of the 5-acyl-2,4,6-pyrimidinetriones, 5-alkylated pyrimidinetriones or the 5,5-dialkylated pyrimidinetriones showed antifungal activity through 125 μg/mL)”.
For the compound `CN1C(=O)C(/C=N/c2nnc[nH]2)C(=O)N(C)C1=O` [BA108], the “MIC80 C. albicans” value is “— (none of the 5-acyl-2,4,6-pyrimidinetriones, 5-alkylated pyrimidinetriones or the 5,5-dialkylated pyrimidinetriones showed antifungal activity through 125 μg/mL)”.
The same measure, in the same setting: the same measure for `O=C1NC(=O)C(/C=N/n2cnnc2)C(=O)N1` [BA109]: “— (none of the 5-acyl-2,4,6-pyrimidinetriones, 5-alkylated pyrimidinetriones or the 5,5-dialkylated pyrimidinetriones showed antifungal activity through 125 μg/mL)”; for `CN1C(=O)C(/C=N/n2cnnc2)C(=O)N(C)C1=O` [BA110]: “— (none of the 5-acyl-2,4,6-pyrimidinetriones, 5-alkylated pyrimidinetriones or the 5,5-dialkylated pyrimidinetriones showed antifungal activity through 125 μg/mL)”.
Still for that read-out and setting: the same measure for `O=C1NC(=O)C(/C=N/C2N=NN=N2)C(=O)N1` [BA111]: “— (none of the 5-acyl-2,4,6-pyrimidinetriones, 5-alkylated pyrimidinetriones or the 5,5-dialkylated pyrimidinetriones showed antifungal activity through 125 μg/mL)”.

The test is the same for the next values; noted with them: Table 8, N-Acylhydrazones of 5-Acylpyrimidinetriones.
Consider `CN1C(=O)C(/C=N/NC(=O)c2ccccc2)C(=O)N(C)C1=O` [BA125], for which the “MIC80 C. albicans” value was “— (none of the 5-acyl-2,4,6-pyrimidinetriones, 5-alkylated pyrimidinetriones or the 5,5-dialkylated pyrimidinetriones showed antifungal activity through 125 μg/mL)”.
`C/C(=N\NC(=O)c1ccccc1)C1C(=O)NC(=O)NC1=O` [BA126]: the “MIC80 C. albicans” value is on record as “— (none of the 5-acyl-2,4,6-pyrimidinetriones, 5-alkylated pyrimidinetriones or the 5,5-dialkylated pyrimidinetriones showed antifungal activity through 125 μg/mL)”.
The same measure, in the same setting: the same measure for `CC(=NNC(=O)c1ccccc1)C1C(=O)N(C)C(=O)N(C)C1=O` [BA127]: “— (none of the 5-acyl-2,4,6-pyrimidinetriones, 5-alkylated pyrimidinetriones or the 5,5-dialkylated pyrimidinetriones showed antifungal activity through 125 μg/mL)”; for `CC(=NNC(=O)c1ccc([N+](=O)[O-])cc1)C1C(=O)NC(=O)NC1=O` [BA130]: “— (none of the 5-acyl-2,4,6-pyrimidinetriones, 5-alkylated pyrimidinetriones or the 5,5-dialkylated pyrimidinetriones showed antifungal activity through 125 μg/mL)”.

Still in this test, the particulars now being: Table 8, values marked * (no footnote in this table).
For the compound `O=C1NC(=O)C(/C=N/NC(=O)c2ccc([N+](=O)[O-])cc2)C(=O)N1` [BA128], the “MIC80 C. albicans” value was 62* μg/mL.
The same measure, in the same setting: the same measure for `CN1C(=O)C(/C=N/NC(=O)c2ccc([N+](=O)[O-])cc2)C(=O)N(C)C1=O` [BA129]: 62* μg/mL.

The test is the same for the next values; noted with them: Table 9, Benzenesuifonohydrazones of 5-Acylpyrimidinetrione.
Take `C/C(=N\NS(=O)(=O)c1ccc(C)cc1)C1C(=O)NC(=O)NC1=O` [BA114]: the “MIC80 C. albicans” value was “— (none of the 5-acyl-2,4,6-pyrimidinetriones, 5-alkylated pyrimidinetriones or the 5,5-dialkylated pyrimidinetriones showed antifungal activity through 125 μg/mL)”.
Still for that read-out and setting: the same measure for `Cc1ccc(S(=O)(=O)N/N=C/C2C(=O)N(C)C(=O)N(C)C2=O)cc1` [BA115]: “— (none of the 5-acyl-2,4,6-pyrimidinetriones, 5-alkylated pyrimidinetriones or the 5,5-dialkylated pyrimidinetriones showed antifungal activity through 125 μg/mL)”.

The same test, now with this note: Table 9, value marked ** (footnote not given).
Consider `Cc1ccc(S(=O)(=O)N/N=C/C2C(=O)NC(=O)NC2=O)cc1` [BA113], for which the “MIC80 C. albicans” value is 16** μg/mL.

Values taken from patent publication US20160235752A1, “COMPOSITIONS, METHODS OF USE, AND METHODS OF TREATMENT” (THE UNIVERSITY OF NEW ORLEANS, priority 2013, published 2016).
